# Test results taken from patent publication US20090155270A1, “CASPASE INHIBITORS, […] 3 INHIBITORS, FOR THE TREATMENT OF INFLUENZA” (priority 2003, published 2009).
# Residues, ends and D or L forms follow the SMILES beside them. *: point of attachment. Cbz = O=C(OCc1ccccc1)*; CH2F = FC*
# T1: caspase-3 (Canis lupus familiaris, UniProt Q8MKI5)
# T1 construct: endogenous in cells; host or cells: MDCK cells infected with influenza A virus FPV
# T1 sequence (Q8MKI5 29-175 limits assumed): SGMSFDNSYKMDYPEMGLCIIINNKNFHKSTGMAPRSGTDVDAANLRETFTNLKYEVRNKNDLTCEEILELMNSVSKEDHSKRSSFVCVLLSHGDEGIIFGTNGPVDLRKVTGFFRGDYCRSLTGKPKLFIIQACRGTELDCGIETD
# T1 sequence (Q8MKI5 176-277 limits assumed): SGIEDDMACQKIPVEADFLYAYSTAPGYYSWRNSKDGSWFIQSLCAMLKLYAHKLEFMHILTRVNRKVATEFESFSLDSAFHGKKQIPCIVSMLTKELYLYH
# B1: procaspase-3 (protein, UniProt P42574 1-277, looked up)
# pro-form: MENTENSVDSKSIKNLEPKIIHGSESMDSGISLDNSYKMDYPEMGLCIIINNKNFHKSTGMTSRSGTDVDAANLRETFRNLKYEVRNKNDLTREEIVELMRDVSKEDHSKRSSFVCVLLSHGEEGIIFGTNGPVDLKKITNFFRGDRCRSLTGKPKLFIIQACRGTELDCGIETDSGVDDDMACHKIPVEADFLYAYSTAPGYYSWRNSKDGSWFIQSLCAMLKQYADKLEFMHILTRVNRKVATEFESFSFDATFHAKKQIPCIVSMLTKELYFYH
# modifications: pro-form
# What was measured:
# [1] = tested on: influenza virus ribonucleic protein complexes (RNP's); assay type: cell-based, influenza A virus
# caspase-3 [2] = target: caspase-3 (Homo sapiens, UniProt P42574)
# [3] = tested on: reconstituted RNP complexes (PB2, PB1, PA, NP); assay type: cell-based, influenza A virus
# [4] = tested on: influenza A virus strain fowl plague virus (FPV); assay type: cell-based
# [5] = tested on: Raf/MEK/ERK signal pathway (ERK); assay type: cell-based, homo sapiens
# [6] = tested on: influenza A virus strain Bratislava/79 (fowl plague virus, FPV); assay type: cell-based
# [7] = tested on: influenza A virus nucleoprotein (NP); assay type: cell-based
# caspase-3 [8] = target: T1, caspase-3; assay type: cell-based
# [9] = tested on: early or late viral proteins (NS1, NP, M1); assay type: cell-based, influenza A virus
# [10] = tested on: influenza A virus strain fowl plague virus (FPV); assay type: cell-based; remark: listed apart in the source
# [11] = tested on: influenza A virus strain fowl plague virus (FPV); assay type: cell-based; remark: listed apart in the source
molecule,measurement,setting,value
N#CC(=C(/N)Sc1ccccc1N)/C(C#N)=C(\N)Sc1ccccc1N [U0126],migration of the RNP's out of the cell nucleus,[1],efficiently be inhibited
same,cleavage of the caspase substrate PARP,caspase-3 [2],did not lead to a modified cleavage of PARP
same,prevention of staurosporine-induced bleeding of GFP and RNP complexes out of the cell nucleus,[3],not
same,effect on the virus multiplication (titers of descendant viruses),[4],again reduced
same,virus-induced activity of ERK,[5],efficiently inhibited
COC(=O)CC[C@H](NC(=O)[C@H](CC(=O)OC)NC(=O)OCc1ccccc1)C(=O)N[C@H](C(=O)N[C@@H](CC(=O)OC)C(=O)CF)C(C)C [Z-DEVD-FMK],migration of the RNP's out of the cell nucleus,[1],efficiently be inhibited
same,effect on virus multiplication when present in the first two hours after infection and removed thereafter,[6],no significant effects
same,inhibition of virus multiplication when added 4 hours after infection,[6],continued to effectively inhibit virus multiplication
same,reduction in the influenza virus titers,[6],approx. 60%
same,prevention of staurosporine-induced bleeding of GFP and RNP complexes out of the cell nucleus,[3],can be prevented
same,prevention of staurosporine-induced bleeding of NP out of the cell nucleus,[7],can be prevented
same,"caspase inhibition, measured by the cleavage of the caspase substrate PARP, versus virus titer inhibition",caspase-3 [8],precisely correlated
same,effect on the virus multiplication (titers of descendant viruses),[4],did not have any effect
same,virus-induced activity of ERK,[5],substantially identical
same,effect on virus protein expression,[9],no significant effect
CC(NC(=O)[C@H](Cc1ccccc1)NC(=O)OCc1ccccc1)C(=O)CF (some centres unmarked) [Z-FA-FMK],migration of the RNP's out of the cell nucleus,[1],not
same,effect on virus multiplication,[6],did not show any effect
COC(=O)C[C@H](NC(=O)[C@H](C)NC(=O)[C@@H](NC(=O)OCc1ccccc1)C(C)C)C(=O)CF [Z-VAD-FMK] (Cbz-Val-Ala-Asp(OMe)-CH2F),inhibition of the virus multiplication,[6],same efficiency
CCC(=C/[C@H](C)C/C=C/C(C)=C/[C@@H](C)C(=O)[C@@H](C)[C@H](O)[C@@H](C)C/C(C)=C/C(=O)O)/C=C/[C@@H]1OC(=O)C=C[C@@H]1C [leptomycin B],prevention of staurosporine-induced bleeding of NP out of the cell nucleus,[7],not
CN[C@@H]1C[C@H]2O[C@@](C)([C@@H]1OC)n1c3ccccc3c3c4c(c5c6ccccc6n2c5c31)C(=O)NC4 [staurosporine],localization of GFP and RNP complexes after apoptosis induction,[3],distributed over the complete cell
same,localization of the nucleoprotein after apoptosis induction,[7],distributed over the complete cell
B1,increase in the titers of descendant viruses,[10],30 fold
same,virus multiplication in transfected cells,[11],increased virus multiplication
